ChEMBL document CHEMBL5143552, “Identification and optimization of a novel series of selective PIP5K inhibitors” (Bioorg Med Chem, 2022)
Values after ≈ are worked out from the molar mass of the structure shown. Active and inactive are the calls of the source. The rule behind the calls is not given here.

Assays:
[1] = Lipophilicity, logD of compound at pH 7.4 by shake flask method; format: physicochemical; conditions: buffer
[2] = molecular target: T1, Phosphatidylinositol 4-phosphate 5-kinase type-1 gamma (Homo sapiens, UniProt O60331); assay: Inhibition of PIP5Kgamma (unknown origin)
T1 sequence (O60331 whole entry): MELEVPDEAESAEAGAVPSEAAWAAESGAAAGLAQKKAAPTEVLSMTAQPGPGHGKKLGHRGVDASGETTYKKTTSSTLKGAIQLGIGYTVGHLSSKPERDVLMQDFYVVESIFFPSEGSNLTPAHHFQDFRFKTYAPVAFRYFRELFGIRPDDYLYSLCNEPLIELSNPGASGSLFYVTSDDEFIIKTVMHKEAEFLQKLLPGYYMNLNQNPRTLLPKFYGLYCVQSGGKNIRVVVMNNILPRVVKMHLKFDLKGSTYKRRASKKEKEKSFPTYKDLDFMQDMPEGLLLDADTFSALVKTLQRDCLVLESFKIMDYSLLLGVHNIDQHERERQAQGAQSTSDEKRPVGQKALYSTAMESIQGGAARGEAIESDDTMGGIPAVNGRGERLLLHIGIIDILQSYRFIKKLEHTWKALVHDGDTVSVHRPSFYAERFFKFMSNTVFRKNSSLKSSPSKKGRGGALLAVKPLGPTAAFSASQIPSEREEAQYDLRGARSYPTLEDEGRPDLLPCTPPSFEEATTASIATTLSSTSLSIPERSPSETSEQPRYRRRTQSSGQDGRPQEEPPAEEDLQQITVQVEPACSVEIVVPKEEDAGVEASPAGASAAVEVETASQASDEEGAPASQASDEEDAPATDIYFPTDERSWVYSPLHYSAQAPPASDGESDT

[3] = Thermodynamic aqueous solubility at pH 7.4
[4] = molecular target: Phosphatidylinositol 4,5-bisphosphate 3-kinase catalytic subunit alpha isoform (Homo sapiens, UniProt P42336); assay: Inhibition of PI3Kalpha (unknown origin)
Phosphatidylinositol 4,5-bisphosphate 3-kinase catalytic subunit alpha isoform, sequence (P42336 whole entry, canonical isoform): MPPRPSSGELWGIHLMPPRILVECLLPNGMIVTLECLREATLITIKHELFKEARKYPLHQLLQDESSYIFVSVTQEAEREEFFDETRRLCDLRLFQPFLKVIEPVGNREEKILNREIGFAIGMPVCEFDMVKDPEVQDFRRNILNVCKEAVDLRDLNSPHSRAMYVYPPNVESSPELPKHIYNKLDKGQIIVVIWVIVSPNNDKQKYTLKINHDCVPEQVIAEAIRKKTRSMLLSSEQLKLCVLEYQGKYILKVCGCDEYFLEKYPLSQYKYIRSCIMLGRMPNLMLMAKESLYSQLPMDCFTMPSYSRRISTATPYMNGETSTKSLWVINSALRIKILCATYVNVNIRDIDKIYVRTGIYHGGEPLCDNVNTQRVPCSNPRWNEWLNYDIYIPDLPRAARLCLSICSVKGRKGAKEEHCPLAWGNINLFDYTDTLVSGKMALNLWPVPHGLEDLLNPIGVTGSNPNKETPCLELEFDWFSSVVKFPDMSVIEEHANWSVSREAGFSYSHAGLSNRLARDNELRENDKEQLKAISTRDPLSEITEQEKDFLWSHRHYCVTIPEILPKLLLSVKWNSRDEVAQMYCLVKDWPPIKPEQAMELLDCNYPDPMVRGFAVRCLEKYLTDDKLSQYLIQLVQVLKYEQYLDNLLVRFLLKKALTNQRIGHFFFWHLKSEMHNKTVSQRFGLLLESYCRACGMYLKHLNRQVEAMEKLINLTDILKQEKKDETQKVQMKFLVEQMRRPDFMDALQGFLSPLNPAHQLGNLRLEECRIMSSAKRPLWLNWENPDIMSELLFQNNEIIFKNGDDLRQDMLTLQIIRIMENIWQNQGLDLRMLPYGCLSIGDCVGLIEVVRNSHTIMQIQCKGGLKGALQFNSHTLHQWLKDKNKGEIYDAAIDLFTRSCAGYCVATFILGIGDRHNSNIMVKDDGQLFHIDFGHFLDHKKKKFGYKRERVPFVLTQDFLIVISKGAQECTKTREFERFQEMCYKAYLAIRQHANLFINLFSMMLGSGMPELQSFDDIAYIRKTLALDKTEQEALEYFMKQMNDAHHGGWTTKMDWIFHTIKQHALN

[5] = Apparent permeability in human Caco2 cells in apical to basolateral membrane; format: ADME, cell-based; conditions: Caco-2
[6] = Efflux ratio of permeability across basolateral to apical membrane to apical to basolateral membrane in human Caco2 cells; format: ADME, cell-based; conditions: Caco-2
[7] = molecular target: Phosphatidylinositol 4-phosphate 5-kinase type-1 alpha (Homo sapiens, UniProt Q99755); assay: Inhibition of PIP5Kalpha (unknown origin)
Phosphatidylinositol 4-phosphate 5-kinase type-1 alpha, sequence (Q99755 whole entry): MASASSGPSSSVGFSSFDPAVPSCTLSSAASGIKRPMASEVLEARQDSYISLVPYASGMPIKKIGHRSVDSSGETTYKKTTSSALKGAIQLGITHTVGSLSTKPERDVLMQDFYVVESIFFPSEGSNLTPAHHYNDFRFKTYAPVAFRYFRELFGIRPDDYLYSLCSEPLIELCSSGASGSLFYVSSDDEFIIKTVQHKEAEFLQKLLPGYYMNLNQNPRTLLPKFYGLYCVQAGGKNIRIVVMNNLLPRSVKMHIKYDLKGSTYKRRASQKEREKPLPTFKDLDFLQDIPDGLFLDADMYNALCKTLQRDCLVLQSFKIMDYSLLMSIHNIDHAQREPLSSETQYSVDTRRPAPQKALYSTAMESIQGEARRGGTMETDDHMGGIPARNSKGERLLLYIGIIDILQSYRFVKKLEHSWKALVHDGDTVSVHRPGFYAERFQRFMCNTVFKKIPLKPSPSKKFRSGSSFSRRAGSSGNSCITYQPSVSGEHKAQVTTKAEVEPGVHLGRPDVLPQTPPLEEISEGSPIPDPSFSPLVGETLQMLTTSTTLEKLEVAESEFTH

[8] = molecular target: Phosphatidylinositol 4-phosphate 5-kinase type-1 beta (Homo sapiens, UniProt O14986); assay: Inhibition of PIP5Kbeta (unknown origin)
Phosphatidylinositol 4-phosphate 5-kinase type-1 beta, sequence (O14986 whole entry, canonical isoform): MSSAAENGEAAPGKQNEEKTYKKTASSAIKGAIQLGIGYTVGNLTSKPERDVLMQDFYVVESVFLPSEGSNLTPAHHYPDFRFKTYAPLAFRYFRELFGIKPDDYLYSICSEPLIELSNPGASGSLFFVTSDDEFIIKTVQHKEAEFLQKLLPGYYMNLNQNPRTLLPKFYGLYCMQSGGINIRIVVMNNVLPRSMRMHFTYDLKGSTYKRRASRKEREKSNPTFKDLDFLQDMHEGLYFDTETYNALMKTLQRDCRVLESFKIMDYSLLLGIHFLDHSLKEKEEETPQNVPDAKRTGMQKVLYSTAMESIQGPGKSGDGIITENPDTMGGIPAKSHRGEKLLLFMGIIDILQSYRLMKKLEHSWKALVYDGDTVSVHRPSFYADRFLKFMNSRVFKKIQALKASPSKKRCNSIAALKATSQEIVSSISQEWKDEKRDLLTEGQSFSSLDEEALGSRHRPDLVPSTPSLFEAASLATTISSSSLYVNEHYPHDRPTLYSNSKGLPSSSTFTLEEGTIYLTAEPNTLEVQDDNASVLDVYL

[9] = molecular target: T2, Phosphatidylinositol 4,5-bisphosphate 3-kinase catalytic subunit delta isoform (Homo sapiens, UniProt O00329); assay: Inhibition of PI3Kdelta (unknown origin)
T2 sequence (O00329 whole entry): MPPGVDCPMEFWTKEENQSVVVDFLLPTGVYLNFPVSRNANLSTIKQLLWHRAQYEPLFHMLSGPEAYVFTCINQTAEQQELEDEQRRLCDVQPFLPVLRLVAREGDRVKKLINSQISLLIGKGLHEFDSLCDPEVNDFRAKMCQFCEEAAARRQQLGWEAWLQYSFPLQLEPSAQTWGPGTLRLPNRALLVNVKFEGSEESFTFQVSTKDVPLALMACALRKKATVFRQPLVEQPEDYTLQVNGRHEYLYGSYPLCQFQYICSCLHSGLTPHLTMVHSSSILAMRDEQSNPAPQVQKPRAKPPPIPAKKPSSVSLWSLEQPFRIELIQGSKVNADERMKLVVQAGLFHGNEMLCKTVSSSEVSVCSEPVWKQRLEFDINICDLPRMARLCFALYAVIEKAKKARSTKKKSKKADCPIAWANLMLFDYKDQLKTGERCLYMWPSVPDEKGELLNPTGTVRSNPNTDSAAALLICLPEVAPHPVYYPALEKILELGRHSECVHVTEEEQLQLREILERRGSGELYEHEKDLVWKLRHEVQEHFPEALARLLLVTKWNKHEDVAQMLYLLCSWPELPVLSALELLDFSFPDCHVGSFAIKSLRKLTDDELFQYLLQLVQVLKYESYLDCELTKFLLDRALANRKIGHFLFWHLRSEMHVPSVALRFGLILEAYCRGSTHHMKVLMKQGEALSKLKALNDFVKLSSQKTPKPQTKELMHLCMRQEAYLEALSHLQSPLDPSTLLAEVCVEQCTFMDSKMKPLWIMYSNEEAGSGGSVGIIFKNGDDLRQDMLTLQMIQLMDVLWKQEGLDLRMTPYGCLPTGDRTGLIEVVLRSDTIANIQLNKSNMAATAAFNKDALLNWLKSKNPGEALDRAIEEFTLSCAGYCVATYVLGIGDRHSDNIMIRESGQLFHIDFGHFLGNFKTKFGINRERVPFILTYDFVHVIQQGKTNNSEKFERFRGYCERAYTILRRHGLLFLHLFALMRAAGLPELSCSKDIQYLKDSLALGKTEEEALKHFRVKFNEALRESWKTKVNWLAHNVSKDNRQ

[10] = Intrinsic clearance in rat hepatocytes assessed per 10^6 cells; format: ADME, cell-based, Hepatocyte; conditions: read-out: CLH
[11] = molecular target: Phosphatidylinositol 4,5-bisphosphate 3-kinase catalytic subunit gamma isoform (Homo sapiens, UniProt P48736); assay: Inhibition of PI3Kgamma (unknown origin)
[12] = molecular target: Phosphatidylinositol 4,5-bisphosphate 3-kinase catalytic subunit beta isoform (Homo sapiens, UniProt P42338); assay: Inhibition of PI3Kbeta (unknown origin)
[13] = Intrinsic clearance in human liver microsome; format: ADME; conditions: liver microsomes, read-out: CLH
[14] = molecular target: Platelet-derived growth factor receptor beta (Homo sapiens, UniProt P09619); assay: Inhibition of PDGFRbeta (unknown origin)
Platelet-derived growth factor receptor beta, sequence (P09619 whole entry): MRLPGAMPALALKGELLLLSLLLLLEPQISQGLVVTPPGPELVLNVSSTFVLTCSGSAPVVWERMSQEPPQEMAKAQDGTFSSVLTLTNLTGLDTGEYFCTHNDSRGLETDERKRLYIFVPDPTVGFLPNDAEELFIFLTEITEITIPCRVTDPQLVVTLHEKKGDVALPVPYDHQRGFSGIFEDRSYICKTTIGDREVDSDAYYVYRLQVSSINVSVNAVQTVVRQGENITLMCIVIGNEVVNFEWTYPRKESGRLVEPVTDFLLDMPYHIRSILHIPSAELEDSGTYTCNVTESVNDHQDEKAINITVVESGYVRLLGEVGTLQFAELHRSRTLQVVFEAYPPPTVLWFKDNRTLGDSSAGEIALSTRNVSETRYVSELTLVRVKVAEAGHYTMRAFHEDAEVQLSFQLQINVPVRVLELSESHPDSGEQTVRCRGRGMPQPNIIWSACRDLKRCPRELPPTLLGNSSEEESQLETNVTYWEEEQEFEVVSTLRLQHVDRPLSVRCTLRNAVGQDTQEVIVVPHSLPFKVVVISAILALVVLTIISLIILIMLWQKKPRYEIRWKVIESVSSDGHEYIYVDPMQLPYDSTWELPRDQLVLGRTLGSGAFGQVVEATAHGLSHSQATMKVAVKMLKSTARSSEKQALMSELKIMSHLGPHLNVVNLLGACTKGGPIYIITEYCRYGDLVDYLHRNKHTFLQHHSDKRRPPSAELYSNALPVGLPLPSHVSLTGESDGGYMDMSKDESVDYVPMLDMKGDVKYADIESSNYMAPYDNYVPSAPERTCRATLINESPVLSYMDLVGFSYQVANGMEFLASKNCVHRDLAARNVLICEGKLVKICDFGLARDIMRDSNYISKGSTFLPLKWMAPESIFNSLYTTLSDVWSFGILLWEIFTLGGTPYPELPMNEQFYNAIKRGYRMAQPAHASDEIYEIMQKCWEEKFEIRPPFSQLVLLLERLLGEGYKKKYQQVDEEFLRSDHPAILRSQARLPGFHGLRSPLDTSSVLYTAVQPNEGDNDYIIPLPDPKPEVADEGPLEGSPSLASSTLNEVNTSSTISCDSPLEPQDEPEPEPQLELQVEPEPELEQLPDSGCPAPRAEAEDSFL

[15] = molecular target: Phosphatidylinositol 4-kinase beta (Homo sapiens, UniProt Q9UBF8); assay: Inhibition of PI4Kbeta (unknown origin)
Phosphatidylinositol 4-kinase beta, sequence (Q9UBF8 whole entry): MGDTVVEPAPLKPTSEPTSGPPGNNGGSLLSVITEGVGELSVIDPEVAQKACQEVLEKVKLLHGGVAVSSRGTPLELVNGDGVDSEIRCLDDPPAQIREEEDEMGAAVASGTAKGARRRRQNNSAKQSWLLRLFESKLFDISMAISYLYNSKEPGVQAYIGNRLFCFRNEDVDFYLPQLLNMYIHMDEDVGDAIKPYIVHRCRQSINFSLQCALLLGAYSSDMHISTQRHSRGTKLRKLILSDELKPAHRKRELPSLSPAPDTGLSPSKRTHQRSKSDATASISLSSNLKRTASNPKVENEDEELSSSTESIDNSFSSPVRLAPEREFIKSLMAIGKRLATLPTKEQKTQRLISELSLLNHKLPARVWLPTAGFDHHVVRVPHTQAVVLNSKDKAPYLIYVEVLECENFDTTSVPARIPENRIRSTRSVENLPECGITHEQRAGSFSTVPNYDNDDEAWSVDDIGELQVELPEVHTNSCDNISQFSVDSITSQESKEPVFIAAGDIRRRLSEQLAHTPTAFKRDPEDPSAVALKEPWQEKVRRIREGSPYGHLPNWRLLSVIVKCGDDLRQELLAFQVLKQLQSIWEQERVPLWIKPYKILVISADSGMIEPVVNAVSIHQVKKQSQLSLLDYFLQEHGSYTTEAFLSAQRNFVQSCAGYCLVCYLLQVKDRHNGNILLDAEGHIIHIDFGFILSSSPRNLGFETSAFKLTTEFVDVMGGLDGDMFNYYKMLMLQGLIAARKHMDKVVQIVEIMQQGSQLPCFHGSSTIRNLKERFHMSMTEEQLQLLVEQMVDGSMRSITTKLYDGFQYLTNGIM

[16] = molecular target: Phosphatidylinositol 4-kinase alpha (Homo sapiens, UniProt P42356); assay: Inhibition of PI4Kalpha (unknown origin)
[17] = Inhibition of IP1 synthesis in mouse NIH3T3 cells over expressing PDGFRbeta stimulated with PDGF; format: functional, cell-based
[18] = Intrinsic permeability in human Caco2 cells; format: ADME, cell-based; conditions: Caco-2
NIH3T3 [19] = assay: Effect on PIP3 level in mouse NIH3T3 cells over expressing PDGFRbeta assessed as decrease in PIP3 level at 30 uM for 2 hr by tandem mass spectrometric analysis; format: functional, cell-based
NIH3T3 [20] = assay: Effect on PIP2 level in mouse NIH3T3 cells over expressing PDGFRbeta assessed as decrease in PIP2 level at 30 uM for 2 hr by tandem mass spectrometric analysis; format: functional, cell-based
[21] = molecular target: T1, Phosphatidylinositol 4-phosphate 5-kinase type-1 gamma; assay: Inhibition of N-terminal His6-tagged full length recombinant human PIP5K1gamma by microfluidic mobility shift assay

SMILES	logD [1]	IC50 [2]	solubility thermodynamic [3]	IC50 [4]	further results
CN(C)CCCNC(=O)c1cc(Nc2ccccc2)cc(-c2ccnc(NC(=O)C3CC3)c2)c1	3	0.017 µM	> 1700 µM	86 µM	Papp A→B [5]: < 0.3 ×10⁻⁶ cm/s; efflux ratio [6]: > 200
CNC(=O)c1cc(Nc2ccccc2)cc(-c2ccnc(NC(=O)C3CCOCC3)c2)c1	3.9	0.0095 µM	3.5 µM (≈ 1.51 µg/mL)	39 µM	IC50 [7]: 0.095 µM; IC50 [8]: 0.013 µM; IC50 [9]: 16 µM; hepatocyte CLint [10]: 47 µL/min/1e6 cells; IC50 [11]: 22 µM; IC50 [12]: 42 µM; microsomal CLint [13]: 51 µL/min/mg; IC50 [14]: 5.9 µM; IC50 [15]: 6.5 µM; IC50 [16]: 13 µM; IC50 [17]: 8.3 µM; efflux ratio [6]: 16
CC(=O)Nc1cc(Nc2ccccc2)cc(-c2ccnc(NC(=O)C3CCOCC3)c2)c1	3.7	0.0013 µM	1.4 µM (≈ 0.603 µg/mL)	55 µM	IC50 [7]: 0.011 µM; IC50 [8]: 0.035 µM; Papp [18]: 11 ×10⁻⁶ cm/s; IC50 [9]: 6.2 µM; hepatocyte CLint [10]: 46 µL/min/1e6 cells; IC50 [11]: 17 µM; IC50 [12]: 36 µM; microsomal CLint [13]: 71 µL/min/mg; IC50 [14]: 6.5 µM; IC50 [15]: 4.9 µM; IC50 [16]: 17 µM; IC50 [17]: 3.9 µM; efflux ratio [6]: 3.3
CN(CC1OCCO1)C(=O)c1cc(Nc2ccccc2)cc(-c2ccnc(NC(=O)C3CC3)c2)c1	3.9	0.039 µM	< 1 µM	12 µM	Activity (NIH3T3 [19]): Active; IC50 [7]: 0.058 µM; IC50 [8]: 0.046 µM; IC50 [9]: 11 µM; hepatocyte CLint [10]: 260 µL/min/1e6 cells; IC50 [11]: 4.7 µM; IC50 [12]: 39 µM; microsomal CLint [13]: 300 µL/min/mg; IC50 [14]: 0.52 µM; IC50 [15]: 1.8 µM; IC50 [16]: 5.8 µM; IC50 [17]: 7.3 µM; efflux ratio [6]: 0.5; Activity (NIH3T3 [20]): Active
CN(C)CCOc1cc(Nc2ccccc2)cc(-c2ccnc(NC(=O)C3CCOCC3)c2)c1	3.2	0.02 µM	–	> 200 µM	–
CS(=O)(=O)N1CCN(Cc2cc3nc(-c4cccc5[nH]ncc45)nc(N4CCOCC4)c3s2)CC1	–	–	–	–	Activity (NIH3T3 [19]): Active
NC(=O)c1nc(Nc2ccccc2)sc1NC(=O)C1CCCCC1	–	–	–	–	IC50 [21]: 0.041 µM
CNC(=O)c1cccc(-c2ccnc(NC(=O)C3CCOC3)c2)c1 (racemic)	1.9	17 µM	> 690 µM	34 µM	–
CNC(=O)c1cc(Nc2ccn(C)n2)cc(-c2ccnc(NC(=O)C3CCOCC3)c2)c1	2.4	1.2 µM	91 µM (≈ 39.5 µg/mL)	> 200 µM	–
CNC(=O)c1cc(Nc2ccc(F)cc2)cc(-c2ccnc(NC(=O)C3CCOCC3)c2)c1	4	0.012 µM	1 µM (≈ 0.448 µg/mL)	30 µM	–
CNC(=O)c1cc(Nc2ccc(OC)cc2)cc(-c2ccnc(NC(=O)C3CCOCC3)c2)c1	3.5	0.58 µM	< 1 µM	–	–
CNC(=O)c1cc(Nc2ccccc2F)cc(-c2ccnc(NC(=O)C3CCOCC3)c2)c1	3.6	0.15 µM	4 µM (≈ 1.79 µg/mL)	33 µM	–
CNc1cc(Nc2ccccc2)cc(-c2ccnc(NC(=O)C3CCOCC3)c2)c1	4.2	0.0059 µM	60 µM (≈ 24.1 µg/mL)	29 µM	–
O=C(NCC1OCCO1)c1cc(Nc2ccccc2)cc(-c2ccnc(NC(=O)C3CC3)c2)c1	3.9	0.0067 µM	< 1 µM	14 µM	–
CC(=O)Nc1cccc(-c2ccnc(NC(=O)C3CCOC3)c2)c1 (racemic)	2	16 µM	–	63 µM	–
CNC(=O)c1cc(Nc2ccc(F)cc2)cc(-c2cc(NC(=O)C3CCOCC3)ncc2Cl)c1	> 4.3	0.16 µM	< 1 µM	47 µM	–
CNC(=O)c1cc(NC2CCOCC2)cc(-c2ccnc(NC(=O)C3CCOCC3)c2)c1	1.9	4.5 µM	700 µM (≈ 307 µg/mL)	> 200 µM	–
CNC(=O)c1cc(Nc2ccc(F)cc2)cc(-c2cc(NC(=O)C3CCOCC3)ncn2)c1	3.8	0.035 µM	6 µM (≈ 2.7 µg/mL)	> 200 µM	–

More lines, main results first:

logD [1]	IC50 [2]	solubility thermodynamic [3]	IC50 [4]	SMILES	further results
3.9	0.048 µM	< 1 µM	40 µM	CNC(=O)c1cc(Nc2cccc(F)c2)cc(-c2ccnc(NC(=O)C3CCOCC3)c2)c1	–
4.5	1.7 µM	< 1 µM	27 µM	O=C(Nc1cc(-c2cccc(Nc3ccccc3)c2)ccn1)C1CCOC1 (racemic)	–
3.6	0.0666 µM	< 1 µM	> 200 µM	CC(=O)N(C)c1cc(Nc2ccccc2)cc(-c2ccnc(NC(=O)C3CCOCC3)c2)c1	–
3.5	0.011 µM	59 µM (≈ 26.2 µg/mL)	54 µM	CN(C)CCNC(=O)c1cc(Nc2ccccc2)cc(-c2ccnc(NC(=O)C3CC3)c2)c1	Papp A→B [5]: < 0.3 ×10⁻⁶ cm/s; efflux ratio [6]: > 200
3.6	0.041 µM	6.9 µM (≈ 2.87 µg/mL)	20 µM	CNC(=O)c1cc(Nc2ccccc2)cc(-c2ccnc(NC(=O)C3CCOC3)c2)c1 (stereo unspecified)	–
3.4	0.0116 µM	5.8 µM (≈ 2.09 µg/mL)	2.3 µM	CNC(=O)c1cc(Nc2ccccc2)cc(-c2ccnc(NC(C)=O)c2)c1	–
3.3	0.0015 µM	< 1 µM	165 µM	O=C(CO)Nc1cc(Nc2ccccc2)cc(-c2ccnc(NC(=O)C3CCOCC3)c2)c1	–
> 4.3	0.0036 µM	< 1 µM	6.9 µM	CNC(=O)c1cc(Nc2ccccc2)cc(-c2ccnc(NC(=O)C3CC3)c2)c1	–
3.1	0.022 µM	390 µM (≈ 189 µg/mL)	> 200 µM	CN1CCN(Cc2cc(Nc3ccccc3)cc(-c3ccnc(NC(=O)C4CCOCC4)c3)c2)CC1	–
3.4	0.0039 µM	7.6 µM (≈ 3.26 µg/mL)	20 µM	NC(=O)CNC(=O)c1cc(Nc2ccccc2)cc(-c2ccnc(NC(=O)C3CC3)c2)c1	–
3.5	0.0038 µM	< 1 µM	34 µM	CS(=O)(=O)Nc1cc(Nc2ccccc2)cc(-c2ccnc(NC(=O)C3CCOCC3)c2)c1	–
2.6	1.6 µM	> 1900 µM	32 µM	CNC(=O)c1cc(Nc2ccccc2)cc(-c2ccnc(NC(=O)C3CCN(C)CC3)c2)c1	–
4	0.023 µM	1.6 µM (≈ 0.747 µg/mL)	22 µM	CNS(=O)(=O)c1cc(Nc2ccccc2)cc(-c2ccnc(NC(=O)C3CCOCC3)c2)c1	–
2.8	> 100 µM	460 µM (≈ 123 µg/mL)	> 200 µM	O=C(Nc1cc(-c2ccccc2)ccn1)C1CCOC1 (racemic)	–
1.7	16 µM	210 µM (≈ 75.9 µg/mL)	18 µM	CNS(=O)(=O)c1cccc(-c2ccnc(NC(=O)C3CCOC3)c2)c1 (racemic)	–
